From PubChem BioAssay AID330 (DTP/NCI, 2004)
Values joined by “and” are separate entries in the source; they are usually repeats but may differ in a detail not shown here. Equal values may be shown once. Inconclusive results and toxic doses are left out. The calls were made as follows: active = survival T/C of 150% or more; inactive = T/C below 125% in these data.

Tested on: P388 leukemia ip, CD2F1 mice, survival T/C
Experiment: NCI In Vivo Anticancer Drug Screen. Data for tumor model P388 Leukemia (intraperitoneal) in CD2F1 (CDF1) mice
Conditions: endpoint: median survival time, higher = longer survival
How it was run: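 Mice carrying the transplanted tumor received test compound or vehicle. Survival was recorded in each group, and the value is the treated-group measurement divided by that of the vehicle-treated control group.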

[1] = dose: 50.0 mg/kg/injection, schedule: Q01DX009 (ip), vehicle: Klucel (hydroxypropylcellulose) (HPC)
[2] = dose: 100.0 mg/kg/injection, schedule: Q01DX009 (ip), vehicle: Klucel (hydroxypropylcellulose) (HPC)
[3] = dose: 200.0 mg/kg/injection, schedule: Q01DX009 (ip), vehicle: Klucel (hydroxypropylcellulose) (HPC)
[4] = dose: 50.0 mg/kg/injection, schedule: Q01DX009 (ip), vehicle: saline with Tween-80
[5] = dose: 100.0 mg/kg/injection, schedule: Q01DX009 (ip), vehicle: saline with Tween-80
[6] = dose: 200.0 mg/kg/injection, schedule: Q01DX009 (ip), vehicle: saline with Tween-80
[7] = dose: 60.0 mg/kg/injection, schedule: Q01DX005 (ip), vehicle: saline with Tween-80
[8] = dose: 120.0 mg/kg/injection, schedule: Q01DX005 (ip), vehicle: saline with Tween-80

Measured: T/C

Cc1cccc2c1C(=O)N(CC[P+](c1ccccc1)(c1ccccc1)c1ccccc1)C2=O
inactive: dose: 0.78 mg/kg/injection, schedule: Q01DX009 (ip), vehicle: water 111 % of control | dose: 1.33 mg/kg/injection, schedule: Q01DX009 (ip), vehicle: water 115 % of control | dose: 2.0 mg/kg/injection, schedule: Q01DX009 (ip), vehicle: water 119 % of control | dose: 3.0 mg/kg/injection, schedule: Q01DX009 (ip), vehicle: water 121 % of control

COc1ccc2c(c1)CCC1=C2N=CN2CCN=C12
inactive: dose: 100.0 mg/kg/injection, schedule: Q04DX002 (ip), vehicle: saline with Tween-80 102 % of control

S=c1[nH]c2ccccc2n1CCc1ccncc1
inactive: dose: 25.0 mg/kg/injection, schedule: Q01DX007 (ip), vehicle: Klucel (hydroxypropylcellulose) (HPC) 104 % of control | dose: 25.0 mg/kg/injection, schedule: Q01DX008 (ip), vehicle: Klucel (hydroxypropylcellulose) (HPC) 103 % of control | dose: 50.0 mg/kg/injection, schedule: Q01DX007 (ip), vehicle: Klucel (hydroxypropylcellulose) (HPC) 104 % of control | dose: 50.0 mg/kg/injection, schedule: Q01DX008 (ip), vehicle: Klucel (hydroxypropylcellulose) (HPC) 106 % of control | [1] 93 % of control | dose: 100.0 mg/kg/injection, schedule: Q01DX007 (ip), vehicle: Klucel (hydroxypropylcellulose) (HPC) 99 % of control | dose: 100.0 mg/kg/injection, schedule: Q01DX008 (ip), vehicle: Klucel (hydroxypropylcellulose) (HPC) 100 % of control | [2] 94 % of control | dose: 200.0 mg/kg/injection, schedule: Q01DX007 (ip), vehicle: Klucel (hydroxypropylcellulose) (HPC) 106 % of control | dose: 200.0 mg/kg/injection, schedule: Q01DX008 (ip), vehicle: Klucel (hydroxypropylcellulose) (HPC) 106 % of control | [3] 94 % of control

CC(C)(C)N(O)c1ccc(P(=O)(c2ccccc2)c2ccccc2)cc1
inactive: [4] 99 % of control | [5] 99 % of control | [6] 99 % of control

O=C(O)/C=C/CCCCCCO
inactive: dose: 100.0 mg/kg/injection, schedule: Q04DX002 (ip), vehicle: saline + alcohol 91 % of control | dose: 200.0 mg/kg/injection, schedule: Q04DX002 (ip), vehicle: saline + alcohol 100 % of control | dose: 400.0 mg/kg/injection, schedule: Q04DX002 (ip), vehicle: saline + alcohol 106 % of control

c1ccc2c3c([nH]c2c1)C1CC2CCCCC2CN1CC3 (stereo not drawn)
inactive: [7] 94 % of control | [8] 111 % of control

C=CCCC(C)CC (stereo not drawn)
inactive: [4] 105 % of control | [5] 103 % of control | [6] 100 % of control

O=C(NNC(O)C(F)(F)F)c1ccccc1 (stereo not drawn)
inactive: dose: 100.0 mg/kg/injection, schedule: Q04DX003 (ip), vehicle: Klucel (hydroxypropylcellulose) (HPC) 103 % of control | dose: 200.0 mg/kg/injection, schedule: Q04DX003 (ip), vehicle: Klucel (hydroxypropylcellulose) (HPC) 103 % of control | dose: 400.0 mg/kg/injection, schedule: Q04DX003 (ip), vehicle: Klucel (hydroxypropylcellulose) (HPC) 110 % of control

c1ccc(-c2ncc[nH]2)cc1
inactive: dose: 100.0 mg/kg/injection, schedule: Q01DX001 (ip), vehicle: saline with Tween-80 98 % of control | dose: 200.0 mg/kg/injection, schedule: Q01DX001 (ip), vehicle: saline with Tween-80 97 % of control

O=C(O)C1=NN(c2ccc(S(=O)(=O)O)cc2)C(=O)C1N=Nc1ccc(S(=O)(=O)O)cc1 (stereo not drawn)
inactive: dose: 50.0 mg/kg/injection, schedule: Q01DX009 (ip), vehicle: saline 95 % of control | dose: 100.0 mg/kg/injection, schedule: Q01DX009 (ip), vehicle: saline 100 % of control | dose: 200.0 mg/kg/injection, schedule: Q01DX009 (ip), vehicle: saline 100 % of control | dose: 400.0 mg/kg/injection, schedule: Q01DX009 (ip), vehicle: saline 95 % of control

COC(=O)CCP(CCC(=O)OC)c1ccccc1
inactive: [7] 99 % of control | [8] 99 % of control | dose: 240.0 mg/kg/injection, schedule: Q01DX005 (ip), vehicle: saline with Tween-80 103 % of control

O=C(O)C1(NO)CCCCC1
inactive: dose: 25.0 mg/kg/injection, schedule: Q01DX009 (ip), vehicle: Klucel (hydroxypropylcellulose) (HPC) 105 % of control | [1] 107 % of control and 110 % of control and 115 % of control | [4] 107 % of control and 119 % of control | [2] 105 % of control and 108 % of control and 119 % of control | [5] 120 % of control and 123 % of control | [3] 111 % of control and 87 % of control | [6] 99 % of control and 119 % of control | dose: 400.0 mg/kg/injection, schedule: Q01DX009 (ip), vehicle: Klucel (hydroxypropylcellulose) (HPC) 110 % of control and 96 % of control | dose: 600.0 mg/kg/injection, schedule: Q01DX009 (ip), vehicle: Klucel (hydroxypropylcellulose) (HPC) 101 % of control and 98 % of control
